From patent US10899751B2, “Compounds, compositions, and methods for increasing CFTR activity” (Proteostasis Therapeutics, Inc., priority 2016, dated 2021) come the findings set out here.

The term pEC50 denotes the EC50 on a negative log10 scale, so that one unit is a factor of ten.

pEC50: −log10 of the molar value.

This assay addresses T1, ΔF508-CFTR (Homo sapiens, UniProt P13569, DEL508-508).
T1 construct: Primary lung epithelial cells homozygous for the Cystic Fibrosis-causing ΔF508 mutation were differentiated for a minimum of 4 weeks; endogenous in cells; host or cells: primary lung (bronchial) epithelial cells (hBE) homozygous for ΔF508, differentiated at an air-liquid interface
Kind of assay: hBE equivalent current (Ieq) assay. The following applies: primary lung epithelial cells homozygous for ΔF508, 24 h treatment; for Ieq Activity: compound at its EC50 and VX-809 at 3 uM; for pEC50: AUC of equivalent chloride current after forskolin plus VX-770. The format is cell-based. As for the experimental part:
Primary lung epithelial cells homozygous for the Cystic Fibrosis-causing ΔF508 mutation were differentiated for a minimum of 4 weeks in an air-liquid interface on Costar 24 well HTS filter plates prior to the equivalent current (Ieq) measurements. Cells were apically mucus-washed for 30 minutes 24 h prior to treatment with compounds. The basolateral media was removed and replaced with media containing the compound of interest diluted to its final concentration from DMSO stocks. Treated cells were incubated at 37° C. and 5% CO2 for 24 hours. At the end of the treatment period, the media was changed to the Ieq experimental solution for 30 minutes before the experiment and plates are maintained in a CO2-free incubator during this period. The plates containing the cells were then placed in pre-warmed heating blocks at 36° C.±0.5 for 15 minutes before measurements are taken. The transepithelial voltage (VT) and conductance (GT) were measured using a custom 24 channel current clamp (TECC-24) with 24 well electrode manifold. The Ieq assay measurements were made following additions with standardized time periods: • 1. The baseline VT and GT values were measured for approximately 20 minutes. • 2. Benzamil was added to block ENaC for 15 minutes. • 3. Forskolin plus VX-770 were added to maximally activate ΔF508-CFTR for 27 minutes. • 4. Bumetanide was added to inhibit the NaK2Cl cotransporter and shut-off secretion of chloride.
The activity data captured was the area under the curve (AUC) for the traces of the equivalent chloride current. The AUC was collected from the time of the forskolin/VX-770 addition until the inhibition by bumetanide addition. Correction in response to compound treatment was scored as the increase in the AUC for compound-treated samples over that of vehicle-treated samples.
(** indicates activity ≥200% of VX-809 (3 uM) with compound at its EC50 and VX-809 at 3 uM; * indicates activity 100-200% of VX-809 (3 uM) with compound at its EC50 and VX-809 at 3 uM. ##indicates activity <100% of VX-809 (3 uM) with compound at its EC50 and VX-809 at 3 uM. In Table 2, an Ieq EC50 value of “A” indicates the compound's EC50 is ≤1 μM; an Ieq EC50 value of “B” indicates the compound's EC50 is between 1 and 10 μM; an Ieq EC50 value of “C” indicates the compound's EC50 is ≥10 μM.

T1 sequence (P13569 with tags, fused parts or gaps DEL508-508): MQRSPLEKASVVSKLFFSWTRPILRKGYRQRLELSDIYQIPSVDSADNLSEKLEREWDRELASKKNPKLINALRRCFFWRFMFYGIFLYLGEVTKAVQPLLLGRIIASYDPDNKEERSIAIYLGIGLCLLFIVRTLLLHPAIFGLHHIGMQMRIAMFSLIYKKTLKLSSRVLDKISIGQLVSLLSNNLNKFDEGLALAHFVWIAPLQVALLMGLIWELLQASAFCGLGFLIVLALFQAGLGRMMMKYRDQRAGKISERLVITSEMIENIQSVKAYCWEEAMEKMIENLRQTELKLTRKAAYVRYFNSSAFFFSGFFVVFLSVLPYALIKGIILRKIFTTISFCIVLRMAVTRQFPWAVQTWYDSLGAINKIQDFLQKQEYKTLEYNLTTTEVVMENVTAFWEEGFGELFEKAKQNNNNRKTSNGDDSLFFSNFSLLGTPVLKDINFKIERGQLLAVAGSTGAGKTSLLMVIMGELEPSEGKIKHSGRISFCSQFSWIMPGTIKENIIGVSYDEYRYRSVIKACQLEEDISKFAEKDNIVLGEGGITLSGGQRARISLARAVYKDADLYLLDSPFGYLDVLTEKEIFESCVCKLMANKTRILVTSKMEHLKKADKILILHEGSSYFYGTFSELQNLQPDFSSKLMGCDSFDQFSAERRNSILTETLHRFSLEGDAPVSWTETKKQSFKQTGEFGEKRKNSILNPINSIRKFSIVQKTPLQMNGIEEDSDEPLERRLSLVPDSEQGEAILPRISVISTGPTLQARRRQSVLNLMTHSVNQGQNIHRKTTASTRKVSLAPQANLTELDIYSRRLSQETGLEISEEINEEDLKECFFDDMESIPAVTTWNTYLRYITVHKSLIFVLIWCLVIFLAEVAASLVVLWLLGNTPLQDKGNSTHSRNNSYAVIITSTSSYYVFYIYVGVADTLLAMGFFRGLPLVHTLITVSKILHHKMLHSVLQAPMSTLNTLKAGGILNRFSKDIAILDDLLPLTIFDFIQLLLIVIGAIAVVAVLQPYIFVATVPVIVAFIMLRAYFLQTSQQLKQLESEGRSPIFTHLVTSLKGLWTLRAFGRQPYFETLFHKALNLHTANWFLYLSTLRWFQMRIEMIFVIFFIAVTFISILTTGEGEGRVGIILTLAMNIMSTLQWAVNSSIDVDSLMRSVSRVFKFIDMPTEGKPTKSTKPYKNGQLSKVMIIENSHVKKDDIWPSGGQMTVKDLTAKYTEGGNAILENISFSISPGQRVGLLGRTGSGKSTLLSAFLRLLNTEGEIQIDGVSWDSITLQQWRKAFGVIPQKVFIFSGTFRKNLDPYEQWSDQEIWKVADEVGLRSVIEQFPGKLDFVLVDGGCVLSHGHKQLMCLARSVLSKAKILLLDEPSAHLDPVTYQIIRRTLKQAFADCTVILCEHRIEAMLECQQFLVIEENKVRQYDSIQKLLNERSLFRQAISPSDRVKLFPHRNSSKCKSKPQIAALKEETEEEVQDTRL

For the compound `O=C(N[C@H]1C[C@H](C(=O)N2CCC2)C1)c1cc(-c2ccccc2)on1` [Example 2, N-((1r,3r)-3-(Azetidine-1-carbonyl)cyclobutyl)-5-phenylisoxazole-3-carboxamide], the “Ieq Activity” value is “** (** indicates activity ≥200% of VX-809 (3 uM) with compound at its EC50 and VX-809 at 3 uM)”; the pEC50 is at least 6.00.
On to `O=C(NCCC(=O)N1CCC1)c1cc(-c2ccccc2)on1` [Example 12], for which the “Ieq Activity” value was “* (* indicates activity 100-200% of VX-809 (3 uM) with compound at its EC50 and VX-809 at 3 uM)”; the pEC50 was at least 6.00.
In the case of `O=C(N[C@H]1C[C@H](C(=O)N2CCC2)C1)c1cc(-c2ccccc2)no1` [Example 4, N-((1r,3r)-3-(Azetidine-1-carbonyl)cyclobutyl)-3-phenylisoxazole-5-carboxamide], the “Ieq Activity” value was “** (** indicates activity ≥200% of VX-809 (3 uM) with compound at its EC50 and VX-809 at 3 uM)”; the pEC50 was 5.00 to 6.00.
In the case of `CN1CCN(C(=O)CCCNC(=O)c2cc(-c3ccc(F)cc3)on2)CC1` [Example 10], the “Ieq Activity” value was “## (##indicates activity <100% of VX-809 (3 uM) with compound at its EC50 and VX-809 at 3 uM)”; the pEC50 is at least 6.00.
Turning to `O=C(NCCCCC(=O)N1CCC1)c1cc(-c2ccccc2)on1` [Example 8], the “Ieq Activity” value is “## (##indicates activity <100% of VX-809 (3 uM) with compound at its EC50 and VX-809 at 3 uM)”; the pEC50 was at least 6.00.
Regarding `O=C(N[C@H]1C[C@H](C(=O)N2CCC2)C1)c1cc(-c2ccc(F)cc2)on1` [Example 6], the “Ieq Activity” value was “* (* indicates activity 100-200% of VX-809 (3 uM) with compound at its EC50 and VX-809 at 3 uM)”; the pEC50 was at least 6.00.
With `O=C(NCCCC(=O)N1CCC1)c1cc(-c2ccc(F)cc2)on1` [Example 1, N-(4-(Azetidin-1-yl)-4-oxobutyl)-5-(4-fluorophenyl)isoxazole-3-carboxamide], the “Ieq Activity” value was “** (** indicates activity ≥200% of VX-809 (3 uM) with compound at its EC50 and VX-809 at 3 uM)”; the pEC50 is at least 6.00.
For `CN1CCN(C(=O)CCCCNC(=O)c2cc(-c3ccccc3)on2)CC1` [Example 11], the “Ieq Activity” value was “## (##indicates activity <100% of VX-809 (3 uM) with compound at its EC50 and VX-809 at 3 uM)”; the pEC50 is at least 6.00.
`O=C(NCCCC(=O)N1CCC1)c1cc(-c2ccccc2)no1` [Example 3, N-(4-(Azetidin-1-yl)-4-oxobutyl)-3-phenylisoxazole-5-carboxamide]: the “Ieq Activity” value was “* (* indicates activity 100-200% of VX-809 (3 uM) with compound at its EC50 and VX-809 at 3 uM)”; the pEC50 was 5.00 to 6.00.
